The results in this text go back to US5747535A, “Selective thrombin inhibitors” (priority 1995, dated 1998).

What is called Ki is the dissociation constant of the complex between target and ligand, obtained from inhibition or displacement.

In the first test the target is T1, trypsin (Bos taurus, UniProt P00760).
T1 sequence (P00760 24-246): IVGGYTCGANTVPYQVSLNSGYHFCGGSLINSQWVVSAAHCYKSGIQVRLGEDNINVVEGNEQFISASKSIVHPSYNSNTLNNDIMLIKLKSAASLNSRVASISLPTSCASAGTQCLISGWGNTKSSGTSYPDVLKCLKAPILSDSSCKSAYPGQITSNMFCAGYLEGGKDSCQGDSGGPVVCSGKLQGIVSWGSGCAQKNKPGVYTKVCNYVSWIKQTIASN
Kind of test: biochemical. It is filed as biochemical. The following applies: 20 μM substrate; read-out: Inhibitory activity for trypsin, Ki. The protocol:
To identify the selectivity for thrombin over trypsin of the compound of the present invention, the inhibitory activity for trypsin of the compound of formula (I) is measured as Ki value according to the same method as the above method for determination of thrombin inhibitory activity, and then the ratio of the activity for trypsin to the activity for thrombin is calculated. In this case, the procedure for determination of inhibitory activity for trypsin is substantially identical to that for thrombin, except that N-benzoyl-Val-Gly-Arg para-nitroanilide hydrochloride is used as the substrate.
As the substrate 20μM solution of N-benzoyl-Val-Gly-Arg-p-nitroanilide hydrochloride was used, and the inhibitor was used in various concnetrations within the range of […]. In addition, trypsin was dissolved in 0.1N HCl, adjusted to the concentration of 45 μg/ml with the said tris buffered solution just before the experiment, and then used in an amount of 40μl. As in the experiment for thrombin, a total volume of the reaction solution was 1.5 ml and the remaining procedure was conducted in the same manner.
Turning to `CNC(=N)c1ccc(C[C@H](NS(=O)(=O)c2ccc3ccccc3c2)C(=O)N(C)C2CCCC2)cc1` [Example 7, (S)-N-cyclopentyl-N-methyl-3-[4-(methylamidino)phenyl]-2-(2-naphthylsulfonylamino)propionamide], the Ki amounted to 363000 nM.

In the next test the target is bovine thrombin (Bos taurus, UniProt P00735). As to the kind of experiment: biochemical.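 Note: bovine thrombin cleaving the chromogenic substrate Chromozym TH, with para-nitroaniline release tracked as absorbance change over time to give initial rates, in Tris buffer at pH 7.8.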
Details: not given
Take `N=C(NN)c1ccc(C[C@H](NS(=O)(=O)c2ccc3ccccc3c2)C(=O)N(CCOCc2ccccc2)C2CCCC2)cc1` [Example 4, (S)-N-cyclopentyl-N-(2-benzyloxyethyl)-3-(4-amidrazonophenyl)-2-(2-naphthylsulfonylamino)propionamide]: the Ki was 345 nM. Turning to `CCN(C(=O)[C@H](Cc1ccc(C(=N)NN)cc1)NS(=O)(=O)c1ccc2ccccc2c1)C1CCCC1` [Example 6, (S)-N-cyclopentyl-N-ethyl-3-(4-amidrazonophenyl)-2-(2-naphthylsulfonylamino)propionamide], the Ki turned out to be 4.35 nM. The same measure, in the same setting: then `CNC(=N)c1ccc(C[C@H](NS(=O)(=O)c2ccc3ccccc3c2)C(=O)N(C)C2CCCC2)cc1` [Example 7, (S)-N-cyclopentyl-N-methyl-3-[4-(methylamidino)phenyl]-2-(2-naphthylsulfonylamino)propionamide], with 13.8 nM; and `COc1cc(C)c(S(=O)(=O)N[C@@H](Cc2ccc(C(=N)NN)cc2)C(=O)N(C)C2CCCC2)c(C)c1C` [Example 9, (S)-N-cyclopentyl-N-methyl-3-(4-amidrazonophenyl)-2-[(4-methoxy-2,3,6-trimethylbenzene)sulfonylamino]propionamide], with 227 nM. Compound `CN(C)C(=O)[C@H](Cc1ccc(C(=N)NN)cc1)NS(=O)(=O)c1ccc2ccccc2c1` [Example 13, (S)-N,N-dimethyl-3-(4-amidrazonophenyl)-2-(2-naphthylsulfonylamino)propionamide] returned a Ki of 216 nM. `CN(C(=O)[C@H](Cc1ccc(C(=N)NN)cc1)NC(=O)Cc1cccc2ccccc12)C1CCCC1` [Example 17, (S)-3-[4-(amidrazono)-phenyl]-N-cyclopentyl-N-methyl-2-(2-naphthalen-1-yl-acetylamino)-propionamide] showed a Ki of 16 nM. Regarding `CN(C(=O)[C@H](Cc1ccc(C(=N)NN)cc1)NS(=O)(=O)c1cccc2ccccc12)C1CCCC1` [Example 22, (S)-3-[4-(amidrazono)-phenyl]-N-cyclopentyl-N-methyl-2-(naphthalene-1-sulfonylamino)-propionamide], affinity was put at a Ki of 17 nM.

`CN(C(=O)[C@H](Cc1ccc(C(=N)NN)cc1)NC(=O)COc1ccc2ccccc2c1)C1CCCC1` [Example 24, (S)-3-[4-(amidrazono)-phenyl]-N-cyclopentyl-N-methyl-2-[2-(naphthalene-2-yl-oxy)acetylamino]-propionamide] came in with a Ki of 20100 nM. For `COC(=O)CN(C)C(=O)[C@H](Cc1ccc(C(=N)NN)cc1)NS(=O)(=O)c1ccc2ccccc2c1` [Example 25, {[3-(4-amidrazono-phenyl)-(S)-2-(naphthalene-2-sulfonylamino)-propionyl]-methyl-amino}-acetic acid methyl ester], the Ki worked out at 259 nM. As for `COC(=O)[C@H](C)N(C)C(=O)[C@H](Cc1ccc(C(=N)NN)cc1)NS(=O)(=O)c1ccc2ccccc2c1` [Example 27, (S)-2-{[3-(4-amidrazono-phenyl)-(S)-2-(naphthalene-2-sulfonylamino)-propionyl]-methyl-amino}propionic acid methyl ester], the affinity corresponds to a Ki of 65 nM. In turn, `COC(=O)[C@@H](C)N(C)C(=O)[C@H](Cc1ccc(C(=N)NN)cc1)NS(=O)(=O)c1ccc2ccccc2c1` [Example 29, (R)-2-{[3-(4-amidrazono-phenyl)-(S)-2-(naphthalene-2-sulfonylamino)-propionyl]-methyl-amino}-propionic acid methyl ester] returned a Ki of 89 nM. Same read-out and setting: then `COC(=O)[C@@H](C(C)C)N(C)C(=O)[C@H](Cc1ccc(C(=N)NN)cc1)NS(=O)(=O)c1ccc2ccccc2c1` [Example 31, (R)-2-{[3-(4-amidrazono-phenyl)-(S)-2-(naphthalene-2-sulfonylamino)-propionyl]-methyl-amino}-3-methyl-butyric acid methyl ester], with 165 nM; and `COC(=O)CCN(C)C(=O)[C@H](Cc1ccc(C(=N)NN)cc1)NS(=O)(=O)c1ccc2ccccc2c1` [Example 33, 3-{[3-(4-amidrazono-phenyl)-(S)-2-(naphthalene-2-sulfonylamino)-propionyl]-methylamino}-propionic acid methyl ester], with 35 nM. `COC(=O)CCCN(C)C(=O)[C@H](Cc1ccc(C(=N)NN)cc1)NS(=O)(=O)c1ccc2ccccc2c1` [Example 35, 4-{[3-(4-amidrazono-phenyl)-(S)-2-(naphthalene-2-sulfonylamino)-propionyl]-methyl-amino}-butyric acid methyl ester] came in with a Ki of 612 nM.

`CCCCN(CC(=O)OC)C(=O)[C@H](Cc1ccc(C(=N)NN)cc1)NS(=O)(=O)c1ccc2ccccc2c1` [Example 39, {[3-(4-amidrazono-phenyl)-(S)-2-(naphthalene-2-sulfonylamino)-propionyl]-butylamino}-acetic acid methyl ester] returned a Ki of 165 nM.

As to `CCOC(=O)C1CCCC1N(C)C(=O)[C@H](Cc1ccc(C(=N)NN)cc1)NS(=O)(=O)c1ccc2ccccc2c1` (stereo partly drawn) [Example 45, 2-{[3-(4-amidrazono-phenyl)-(S)-2-(naphthalene-2-sulfonylamino)-propionyl]-methylamino}-cyclopentane carboxylic acid ethyl ester], the Ki amounted to 346 nM.

Take `CN(C(=O)[C@H](Cc1ccc(C(=N)NN)cc1)NS(=O)(=O)c1ccc2ccccc2c1)C1CCCC1C(=O)O` (stereo partly drawn) [Example 46, 2-{[3-(4-amidrazono-phenyl)-(S)-2-(naphthalene-2-sulfonylamino)-propionyl]-methylamino}-cyclopentane carboxylic acid]: the Ki was determined as 880 nM.

As to `COC(=O)[C@H](C(C)C)N(C)C(=O)[C@H](Cc1ccc(C(=N)NN)cc1)NS(=O)(=O)c1ccc2ccccc2c1` [Example 47, (S)-2-{[3-(4-amidrazono-phenyl)-(S)-2-(naphthalene-2-sulfonylamino)-propionyl]-methylamino}-3-methyl-butyric acid methyl ester], the Ki turned out to be 665 nM. On the same count and under the same terms, the result for `COC(=O)[C@H]1CCCCN1C(=O)[C@H](Cc1ccc(C(=N)NN)cc1)NS(=O)(=O)c1ccc2ccccc2c1` [Example 48, 1-[3-(4-amidrazono-phenyl)-(S)-2-(naphthalene-2-sulfonylamino)-propionyl]-piperidine-(R)-2-carboxylic acid methyl ester] reads 13 nM; that for `N=C(NN)c1ccc(C[C@H](NS(=O)(=O)c2ccc3ccccc3c2)C(=O)N2CCCC[C@@H]2C(=O)O)cc1` [Example 49, 1-[3-(4-amidrazono-phenyl)-(S)-2-(naphthalene-2-sulfonylamino)-propionyl]-piperidine-(R)-2-carboxylic acid], 406 nM. In turn, `CCOC(=O)N1CCN(C(=O)[C@H](Cc2ccc(C(=N)NN)cc2)NS(=O)(=O)c2ccc3ccccc3c2)CC1` [Example 51, (S)-naphthalene-2-sulfonic acid [1-(4-amidrazono)benzyl-2-oxo-2-(4-ethoxycarbonyl-piperazinyl)-ethyl]amide] gave a Ki of 3300 nM.

Regarding `N=C(NN)c1ccc(C[C@H](NS(=O)(=O)c2ccc3ccccc3c2)C(=O)N2CCN(C=O)CC2)cc1` [Example 52, (S)-naphthalene-2-sulfonic acid [1-(4-amidrazono)benzyl-2-(4-formyl-piperazinyl)-2-oxoethyl]amide], the Ki turned out to be 50 nM. For the compound `CCN1CCN(C(=O)[C@H](Cc2ccc(C(=N)NN)cc2)NS(=O)(=O)c2ccc3ccccc3c2)CC1` [Example 53, (S)-naphthalene-2-sulfonic acid [1-(4-amidrazono)benzyl-2-(4-ethyl-piperazinyl)-2-oxoethyl]amide], affinity was put at a Ki of 530 nM. `N=C(NN)c1ccc(C[C@H](NS(=O)(=O)c2ccc3ccccc3c2)C(=O)N2CCN(c3ccccc3)CC2)cc1` [Example 54, (S)-naphthalene-2-sulfonic acid [1-(4-amidrazono)benzyl-2-oxo-2-(4-phenyl-piperazinyl)-ethyl]amide] gave a Ki of 5380 nM. In the case of `N=C(NN)c1ccc(C[C@H](NS(=O)(=O)c2ccc3ccccc3c2)C(=O)N2CCN(c3cccc(C(F)(F)F)c3)CC2)cc1` [Example 55, (S)-naphthalene-2-sulfonic acid [1-(4-amidrazono)-benzyl-2-oxo-2-[-4-(3-trifluoromethyl-phenyl)-piperazinyl]-ethyl]-amide], the Ki is 10000 nM. `CC(=O)N1CCN(C(=O)[C@H](Cc2ccc(C(=N)NN)cc2)NS(=O)(=O)c2ccc3ccccc3c2)CC1` [Example 56, (S)-naphthalene-2-sulfonic acid [2-(4-acetyl-piperazinyl)-1-(4-amidrazono)benzyl-2-oxoethyl]amide] yielded a Ki of 280 nM. In turn, `N=C(NN)c1ccc(C[C@H](NS(=O)(=O)c2ccc3ccccc3c2)C(=O)N2CCN(CCO)CC2)cc1` [Example 57, (S)-naphthalene-2-sulfonic acid [1-(4-amidrazono)benzyl-2-oxo-2-[4-(2-hydroxyethyl)-piperazinyl]-ethyl]amide] registered a Ki of 88 nM. For `CCOc1ccccc1N1CCN(C(=O)[C@H](Cc2ccc(C(=N)NN)cc2)NS(=O)(=O)c2ccc3ccccc3c2)CC1` [Example 58, (S)-naphthalene-2-sulfonic acid [1-(4-amidrazono)benzyl-2-oxo-2-[4-(2-ethoxyphenyl)-piperazinyl]-ethyl]amide], the Ki was determined as 9130 nM.
